ChEMBL document CHEMBL1152699, “Taste-guided identification of high potency TRPA1 agonists from Perilla frutescens” (Bioorg Med Chem, 2009)
Activity calls are given as the source filed them. No cut-off for these calls is given here.

Columns and labels:
Type in all cases: functional, cell-based
[1] = target: Transient receptor potential cation channel subfamily A member 1 (Rattus norvegicus) (UniProt Q6RI86); assay: Agonist activity at rat recombinant TRPA1 receptor expressed in HEK293 cells assessed as increase in intracellular calcium concentration by fluorimetric test in presence of TRP channel blocker ruthenium red
[2] = target: Transient receptor potential cation channel subfamily A member 1 (Rattus norvegicus) (UniProt Q6RI86); assay: Antagonist activity at rat recombinant TRPA1 receptor expressed in HEK293 cells assessed as inhibition of allylisothiocyanate-induced increase in intracellular calcium concentration preincubated for 5 mins by fluorimetric test
[3] = target: Transient receptor potential cation channel subfamily M member 8 (Rattus norvegicus) (UniProt Q8R455); assay: Antagonist activity at rat recombinant TRPM8 receptor expressed in HEK293 cells assessed as inhibition of icilin-induced increase in intracellular calcium concentration at 200 uM preincubated […] before icilin treatment by fluorimetric test
[4] = target: Transient receptor potential cation channel subfamily A member 1 (Rattus norvegicus) (UniProt Q6RI86); assay: Agonist activity at rat recombinant TRPA1 receptor expressed in HEK293 cells assessed as increase in intracellular calcium concentration by fluorimetric test relative to 100 uM allylisothiocyanate
[5] = target: Transient receptor potential cation channel subfamily M member 8 (Rattus norvegicus) (UniProt Q8R455); assay: Antagonist activity at rat recombinant TRPM8 receptor expressed in HEK293 cells assessed as inhibition of icilin-induced increase in intracellular calcium concentration at 200 uM preincubated for 5 mins before icilin treatment by fluorimetric test
[6] = target: Transient receptor potential cation channel subfamily A member 1 (Rattus norvegicus, UniProt Q6RI86); assay: Agonist activity at rat recombinant TRPA1 receptor expressed in HEK293 cells assessed as increase in intracellular calcium concentration by fluorimetric test
[7] = target: Transient receptor potential cation channel subfamily M member 8 (Rattus norvegicus) (UniProt Q8R455); assay: (§1) Agonist activity at rat recombinant TRPM8 receptor expressed in HEK293 cells assessed as increase in intracellular calcium concentration by fluorimetric test
[8] = target: Transient receptor potential cation channel subfamily M member 8 (Rattus norvegicus, UniProt Q8R455); assay: as §1
Transient receptor potential cation channel subfamily M member 8, sequence (Q8R455 whole entry): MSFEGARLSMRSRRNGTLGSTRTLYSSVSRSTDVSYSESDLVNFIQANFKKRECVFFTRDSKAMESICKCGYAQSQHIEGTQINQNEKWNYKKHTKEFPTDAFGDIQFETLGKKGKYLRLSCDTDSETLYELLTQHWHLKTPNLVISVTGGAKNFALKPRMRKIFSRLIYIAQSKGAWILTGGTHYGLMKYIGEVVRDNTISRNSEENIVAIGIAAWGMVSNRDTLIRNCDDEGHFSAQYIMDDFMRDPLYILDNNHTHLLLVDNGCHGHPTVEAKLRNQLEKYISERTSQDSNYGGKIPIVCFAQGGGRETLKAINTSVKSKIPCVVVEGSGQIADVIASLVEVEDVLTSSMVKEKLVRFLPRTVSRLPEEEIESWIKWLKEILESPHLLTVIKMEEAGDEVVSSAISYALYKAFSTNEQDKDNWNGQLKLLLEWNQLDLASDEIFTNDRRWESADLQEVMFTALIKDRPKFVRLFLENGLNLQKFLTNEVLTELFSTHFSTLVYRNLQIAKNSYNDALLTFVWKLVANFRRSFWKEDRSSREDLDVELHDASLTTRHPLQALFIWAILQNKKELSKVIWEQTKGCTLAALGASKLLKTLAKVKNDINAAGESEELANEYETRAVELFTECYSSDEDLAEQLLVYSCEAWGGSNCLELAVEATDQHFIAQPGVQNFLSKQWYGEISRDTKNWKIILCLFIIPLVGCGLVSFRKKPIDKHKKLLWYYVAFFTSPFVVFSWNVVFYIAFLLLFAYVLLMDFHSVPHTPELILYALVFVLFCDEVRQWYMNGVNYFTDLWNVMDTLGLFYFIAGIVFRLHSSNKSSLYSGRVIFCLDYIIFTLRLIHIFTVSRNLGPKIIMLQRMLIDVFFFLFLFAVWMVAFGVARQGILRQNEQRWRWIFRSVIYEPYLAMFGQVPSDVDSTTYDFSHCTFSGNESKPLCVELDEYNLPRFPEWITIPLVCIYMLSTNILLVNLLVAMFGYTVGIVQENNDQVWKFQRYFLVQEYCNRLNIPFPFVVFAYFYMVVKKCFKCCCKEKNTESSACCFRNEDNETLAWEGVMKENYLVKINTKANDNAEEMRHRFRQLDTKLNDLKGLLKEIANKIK

Transient receptor potential cation channel subfamily A member 1 (Rattus norvegicus), sequence (Q6RI86 whole entry): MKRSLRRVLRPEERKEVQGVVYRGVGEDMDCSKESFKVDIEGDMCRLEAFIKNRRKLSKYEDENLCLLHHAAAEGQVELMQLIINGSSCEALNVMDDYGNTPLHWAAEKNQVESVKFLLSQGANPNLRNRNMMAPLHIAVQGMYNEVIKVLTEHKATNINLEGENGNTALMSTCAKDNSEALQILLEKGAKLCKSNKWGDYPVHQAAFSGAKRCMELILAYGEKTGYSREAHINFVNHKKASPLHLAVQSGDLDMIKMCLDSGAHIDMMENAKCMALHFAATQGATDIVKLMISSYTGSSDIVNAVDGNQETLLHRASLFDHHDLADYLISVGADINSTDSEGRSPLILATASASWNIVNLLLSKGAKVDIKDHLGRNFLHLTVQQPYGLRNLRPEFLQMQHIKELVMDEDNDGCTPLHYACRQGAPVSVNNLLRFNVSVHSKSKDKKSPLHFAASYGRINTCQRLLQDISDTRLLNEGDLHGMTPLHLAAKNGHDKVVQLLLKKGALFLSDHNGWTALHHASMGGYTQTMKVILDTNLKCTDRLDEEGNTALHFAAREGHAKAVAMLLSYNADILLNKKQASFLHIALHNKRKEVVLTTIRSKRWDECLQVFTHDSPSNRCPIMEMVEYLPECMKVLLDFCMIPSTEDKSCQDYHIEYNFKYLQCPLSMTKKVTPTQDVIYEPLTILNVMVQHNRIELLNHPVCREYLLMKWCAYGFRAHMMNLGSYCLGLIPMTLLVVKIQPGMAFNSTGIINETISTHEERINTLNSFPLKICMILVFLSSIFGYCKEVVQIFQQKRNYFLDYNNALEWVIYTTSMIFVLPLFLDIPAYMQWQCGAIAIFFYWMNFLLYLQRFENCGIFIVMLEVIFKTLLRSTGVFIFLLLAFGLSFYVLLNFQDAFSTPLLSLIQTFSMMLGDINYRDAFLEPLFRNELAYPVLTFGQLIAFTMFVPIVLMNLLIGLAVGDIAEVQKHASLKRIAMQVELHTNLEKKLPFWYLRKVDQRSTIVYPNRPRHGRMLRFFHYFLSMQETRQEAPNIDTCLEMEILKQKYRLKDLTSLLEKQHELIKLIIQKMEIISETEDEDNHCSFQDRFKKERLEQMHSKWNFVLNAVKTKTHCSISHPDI
Transient receptor potential cation channel subfamily A member 1, sequence (Q6RI86 whole entry): as above
Transient receptor potential cation channel subfamily M member 8 (Rattus norvegicus), sequence (Q8R455 whole entry, looked up): as the sequence (Q8R455 whole entry) above

Compound	Activity [1]	Activity [2]	Activity [3]	Efficacy [4]	inhibition [5]	EC50 ([6]; read-out: EC50)	EC50 ([6]; read-out: pEC50 (converted))	Activity [7]	EC50 [8]
CC(C)CCC(=O)c1ccoc1 [PERILLAKETONE]	inactive	Active	Active	181%	39.3%	19.7 µM	40.7 µM	–	–
O=C1NC(c2cccc([N+](=O)[O-])c2)=CCN1c1ccccc1O [ICILLIN]	–	–	–	–	–	–	–	Dose-dependent effect	0.19 µM
C=C(C)C1CC=C(C=O)CC1 (stereo not given) [PERILLALDEHYDE]	inactive	–	Active	74.6%	64.3%	41 µM	19.5 µM	–	–
